In US10266548B2, “Substituted benzylindazoles for use as Bub1 kinase inhibitors in the treatment of hyperproliferative diseases” (Bayer Intellectual Property GmbH, priority 2011, dated 2019):
Like-named read-outs stand apart in the source and are kept apart here.

Tests used:
DU145 cells = experiment: Proliferation assay (DU145 cell line); assay type: cell-based; settings: Homo sapiens, DU-145, 96 h, read-out: Biological Assay 2: Proliferation assay (DU145 cell line) median IC50
Protocol: (§1) Cultivated tumor cells (cells were ordered from ATCC, except HeLa-MaTu and HeLa-MaTu-ADR, which were ordered from EPO-GmbH, Berlin) were plated at a density of 1000 to 5000 cells/well, depending on the growth rate of the respective cell line, in a 96-well multititer plate in 200 μL of their respective growth medium supplemented 10% fetal calf serum. After 24 hours, the cells of one plate (zero-point plate) were stained with crystal violet (see below), while the medium of the other plates was replaced by fresh culture medium (200 μl), to which the test substances were added in various concentrations (0 μM, as well as in the range of 0.001-10 μM; the final concentration of the solvent dimethyl sulfoxide was 0.5%). The cells were incubated for 4 days in the presence of test substances. Cell proliferation was determined by staining the cells with crystal violet: the cells were fixed by adding 20 μl/measuring point of an 11% glutaric aldehyde solution for 15 minutes at room temperature. After three washing cycles of the fixed cells with water, the plates were dried at room temperature. The cells were stained by adding 100 μl/measuring point of a 0.1% crystal violet solution (pH 3.0). After three washing cycles of the stained cells with water, the plates were dried at room temperature. The dye was dissolved by adding 100 μl/measuring point of a 10% acetic acid solution. […] The change of cell number, in percent, was calculated by normalization of the measured values to the aborbtion values of the zero-point plate (=0%) and the absorbtion of the untreated (0 μm) cells (=100%). The IC50 values were determined by means of a 4 parameter fit using the company's own software.

HeLa-MaTu-ADR cells = experiment: Proliferation assay (HeLa-MaTu-ADR cell line); assay type: cell-based; settings: 96 h, read-out: Biological Assay 2: Proliferation assay (HeLa-MaTu-ADR cell line) median IC50
Protocol: as §1

Caco2 cells = experiment: Proliferation assay (Caco2 cell line); assay type: cell-based; settings: Homo sapiens, Caco-2, 96 h, read-out: Biological Assay 2: Proliferation assay (Caco2 cell line) median IC50
Protocol: as §1

HeLa cells = experiment: Proliferation assay (HeLa cell line); assay type: cell-based; settings: read-out: Biological Assay 2: Proliferation assay (HeLa cell line) median IC50
[1] = target: catalytic domain of human Bub1 (amino acids 704-1085) (Homo sapiens (Human), UniProt O43683); experiment: Bub1 kinase assay (TR-FRET); assay type: biochemical; settings: 10 μM ATP, 1 μM peptide substrate; read-out: Biological Assay 1: Bub1 kinase assay median IC50
catalytic domain of human Bub1 (amino acids 704-1085), sequence (O43683 704-1085): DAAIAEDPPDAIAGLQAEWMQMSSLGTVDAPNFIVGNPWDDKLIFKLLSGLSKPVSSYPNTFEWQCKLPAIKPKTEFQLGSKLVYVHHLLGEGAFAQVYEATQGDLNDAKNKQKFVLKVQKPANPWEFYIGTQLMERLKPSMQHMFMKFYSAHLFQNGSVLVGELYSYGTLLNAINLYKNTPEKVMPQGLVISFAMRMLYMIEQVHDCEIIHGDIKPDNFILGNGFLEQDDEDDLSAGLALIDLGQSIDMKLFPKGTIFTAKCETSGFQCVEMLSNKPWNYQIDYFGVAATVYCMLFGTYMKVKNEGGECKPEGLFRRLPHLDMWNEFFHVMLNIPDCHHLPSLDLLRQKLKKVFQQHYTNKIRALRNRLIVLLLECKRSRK
In short: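 Phosphoserine product detected by TR-FRET (Eu-labeled anti-mouse IgG/anti-phosphoserine antibody to streptavidin-XL665) after 1 h at 22 °C. IC50 from 4-parameter logistic fit.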

NCI-H460 cells = experiment: Proliferation assay (H460 cell line); assay type: cell-based; settings: Homo sapiens, NCI-H460, 96 h, read-out: Biological Assay 2: Proliferation assay (H460 cell line) median IC50
Protocol: as §1

MCF7 cells = experiment: Proliferation assay (MCF7 cell line); assay type: cell-based; settings: Homo sapiens, 96 h; MCF7, 4 days, crystal violet; read-out: Biological Assay 2: Proliferation assay (MCF7 cell line) median IC50
Protocol: Cultivated tumor cells (cells were ordered from ATCC, except HeLa-MaTu and HeLa-MaTu-ADR, which were ordered from EPO-GmbH, Berlin) were plated at a density of 1000 to 5000 cells/well, depending on the growth rate of the respective cell line, in a 96-well multititer plate in 200 μL of their respective growth medium supplemented 10% fetal calf serum. After 24 hours, the cells of one plate (zero-point plate) were stained with crystal violet (see below), while the medium of the other plates was replaced by fresh culture medium (200 μl), to which the test substances were added in various concentrations (0 μM, as well as in the range of 0.001-10 μM; the final concentration of the solvent dimethyl sulfoxide was 0.5%). The cells were incubated for 4 days in the presence of test substances. Cell proliferation was determined by staining the cells with crystal violet: the cells were fixed by adding 20 μl/measuring point of an 11% glutaric aldehyde solution for 15 minutes at room temperature. […] Absorbtion was determined by photometry at a wavelength of 595 nm. The change of cell number, in percent, was calculated by normalization of the measured values to the aborbtion values of the zero-point plate (=0%) and the absorbtion of the untreated (0 μm) cells (=100%). The IC50 values were determined by means of a 4 parameter fit using the company's own software.

B16F10 cells = experiment: Proliferation assay (B16F10 cell line); assay type: cell-based; settings: Mus musculus, B16-F10, 96 h, read-out: Biological Assay 2: Proliferation assay (B16F10 cell line) median IC50
Protocol: as §1

[2] = HeLa-MaTu-ADR, 4 days, crystal violet
[3] = Homo sapiens, 96 h, 4 days, crystal violet

Q: `CCOc1cc(F)c(Cn2nc(-c3ncc(OC)c(Nc4ccncc4)n3)c3ccccc32)c(F)c1` [Example 2-5-1, 2-[1-(4-ethoxy-2,6-difluorobenzyl)-1H-indazol-3-yl]-5-methoxy-N-(pyridin-4-yl)pyrimidin-4-amine] was tested. Which IC50 (DU145 cells; DU145, 4 days, crystal violet) did it give?
A: 1700 nM

Q: And the IC50 (HeLa-MaTu-ADR cells; [2])?
A: 1200 nM

Q: What about the IC50 (Caco2 cells; Caco2, 4 days, crystal violet) of the same compound?
A: 1200 nM

Q: What about the IC50 (HeLa cells; 4 days, crystal violet) of the same compound?
A: 2100 nM

Q: And the IC50 [1]?
A: 4.6 nM

Q: And the IC50 (NCI-H460 cells; H460, 4 days, crystal violet)?
A: 1400 nM

Q: And the IC50 (MCF7 cells)?
A: 3100 nM

Q: And the IC50 (B16F10 cells; B16F10, 4 days, crystal violet)?
A: 1100 nM

Q: `COC(=O)c1ccc(Cl)c(Cn2nc(-c3ncc(OC)c(Nc4ccncc4)n3)c3ccccc32)c1Cl` [Example 2-16-1, methyl 2,4-dichloro-3-({3-[5-methoxy-4-(pyridin-4-ylamino)pyrimidin-2-yl]-1H-indazol-1-yl}methyl)benzoate] was tested. Which IC50 (DU145 cells; DU145, 4 days, crystal violet) did it give?
A: 2000 nM

Q: What about the IC50 (HeLa-MaTu-ADR cells; [2]) of the same compound?
A: 1200 nM

Q: And the IC50 (Caco2 cells; Caco2, 4 days, crystal violet)?
A: 2600 nM

Q: What about the IC50 (HeLa cells; [3]) of the same compound?
A: 1600 nM

Q: What about the IC50 [1] of the same compound?
A: 8.4 nM

Q: And the IC50 (NCI-H460 cells; H460, 4 days, crystal violet)?
A: 2900 nM

Q: What about the IC50 (MCF7 cells) of the same compound?
A: 2000 nM

Q: What about the IC50 (B16F10 cells; B16F10, 4 days, crystal violet) of the same compound?
A: 990 nM

Q: Which results are given for `C/C=C/c1cc(F)c(Cn2nc(-c3ncc(OC)c(Nc4ccncc4)n3)c3ccccc32)c(F)c1` [Example 6-2, 2-(1-{2,6-difluoro-4-[(1E)-prop-1-en-1-yl]benzyl}-1H-indazol-3-yl)-5-methoxy-N-(pyridin-4-yl)pyrimidin-4-amine]?
A: IC50 (DU145 cells): 1400 nM; IC50 (HeLa-MaTu-ADR cells): 1600 nM; IC50 (Caco2 cells): 1200 nM; IC50 (HeLa cells; Homo sapiens, 96 h): 1400 nM; IC50 [1]: 7.4 nM; IC50 (NCI-H460 cells): 1700 nM; IC50 (B16F10 cells): 1100 nM

Q: How did the IC50 (DU145 cells; DU145, 4 days, crystal violet) turn out when `COc1cnc(-c2nn(Cc3c(Cl)ccc(NC(C)=O)c3Cl)c3ccccc23)nc1Nc1ccncc1` [Example 41-1, N-[2,4-dichloro-3-({3-[5-methoxy-4-(pyridin-4-ylamino)pyrimidin-2-yl]-1H-indazol-1-yl}methyl)phenyl]acetamide] was run?
A: 10000 nM

Q: And the IC50 (HeLa-MaTu-ADR cells; [2])?
A: 10000 nM

Q: And the IC50 (Caco2 cells; Caco2, 4 days, crystal violet)?
A: 3300 nM

Q: And the IC50 (HeLa cells; [3])?
A: 6000 nM

Q: And the IC50 [1]?
A: 19 nM

Q: And the IC50 (NCI-H460 cells; H460, 4 days, crystal violet)?
A: 10000 nM

Q: What about the IC50 (B16F10 cells; B16F10, 4 days, crystal violet) of the same compound?
A: 1800 nM

Q: `CCOc1cc(F)c(Cn2nc(-c3ncc(OCCO)c(Nc4ccncc4)n3)c3ccccc32)c(F)c1` [Example 13-1, 2-({2-[1-(4-ethoxy-2,6-difluorobenzyl)-1H-indazol-3-yl]-4-(pyridin-4-ylamino)pyrimidin-5-yl}oxy)ethanol] was tested. Which IC50 (DU145 cells; DU145, 4 days, crystal violet) did it give?
A: 1600 nM

Q: And the IC50 (HeLa-MaTu-ADR cells; [2])?
A: 1300 nM

Q: And the IC50 (Caco2 cells; Caco2, 4 days, crystal violet)?
A: 1200 nM

Q: And the IC50 (HeLa cells; [3])?
A: 1500 nM

Q: And the IC50 [1]?
A: 3.3 nM

Q: What about the IC50 (NCI-H460 cells; H460, 4 days, crystal violet) of the same compound?
A: 1300 nM

Q: And the IC50 (B16F10 cells; B16F10, 4 days, crystal violet)?
A: 790 nM

Q: What does the source list for `COC(=O)c1ccc(Cn2nc(-c3ncc(OC)c(Nc4ccncc4)n3)c3ccccc32)c(Cl)c1` [Example 2-11-1, methyl 3-chloro-4-({3-[5-methoxy-4-(pyridin-4-ylamino)pyrimidin-2-yl]-1H-indazol-1-yl}methyl)benzoate]?
A: IC50 (DU145 cells; DU145, 4 days, crystal violet): 3000 nM; IC50 (HeLa-MaTu-ADR cells; [2]): 3000 nM; IC50 (Caco2 cells; Caco2, 4 days, crystal violet): 3000 nM; IC50 (HeLa cells; [3]): 290 nM; IC50 [1]: 7.1 nM; IC50 (NCI-H460 cells; H460, 4 days, crystal violet): 3000 nM; IC50 (B16F10 cells; B16F10, 4 days, crystal violet): 2900 nM
